# Source: US12030878B2 (BRISTOL-MYERS SQUIBB COMPANY, priority 2017, dated 2024)
# Assays:
# Assay type in all cases: cell-based
# human TLR7 = molecular target: T1, human TLR7 (Homo sapiens, UniProt Q9NYK1); assay: TLR7 inhibition reporter assay (HEK-Blue SEAP); conditions: HEK-Blue cells overexpressing human TLR7, stimulated with gardiquimod 7.5 μM, 22 hour incubation
# T1 construct: host or cells: HEK-Blue cells
# T1 sequence (Q9NYK1 27-1049): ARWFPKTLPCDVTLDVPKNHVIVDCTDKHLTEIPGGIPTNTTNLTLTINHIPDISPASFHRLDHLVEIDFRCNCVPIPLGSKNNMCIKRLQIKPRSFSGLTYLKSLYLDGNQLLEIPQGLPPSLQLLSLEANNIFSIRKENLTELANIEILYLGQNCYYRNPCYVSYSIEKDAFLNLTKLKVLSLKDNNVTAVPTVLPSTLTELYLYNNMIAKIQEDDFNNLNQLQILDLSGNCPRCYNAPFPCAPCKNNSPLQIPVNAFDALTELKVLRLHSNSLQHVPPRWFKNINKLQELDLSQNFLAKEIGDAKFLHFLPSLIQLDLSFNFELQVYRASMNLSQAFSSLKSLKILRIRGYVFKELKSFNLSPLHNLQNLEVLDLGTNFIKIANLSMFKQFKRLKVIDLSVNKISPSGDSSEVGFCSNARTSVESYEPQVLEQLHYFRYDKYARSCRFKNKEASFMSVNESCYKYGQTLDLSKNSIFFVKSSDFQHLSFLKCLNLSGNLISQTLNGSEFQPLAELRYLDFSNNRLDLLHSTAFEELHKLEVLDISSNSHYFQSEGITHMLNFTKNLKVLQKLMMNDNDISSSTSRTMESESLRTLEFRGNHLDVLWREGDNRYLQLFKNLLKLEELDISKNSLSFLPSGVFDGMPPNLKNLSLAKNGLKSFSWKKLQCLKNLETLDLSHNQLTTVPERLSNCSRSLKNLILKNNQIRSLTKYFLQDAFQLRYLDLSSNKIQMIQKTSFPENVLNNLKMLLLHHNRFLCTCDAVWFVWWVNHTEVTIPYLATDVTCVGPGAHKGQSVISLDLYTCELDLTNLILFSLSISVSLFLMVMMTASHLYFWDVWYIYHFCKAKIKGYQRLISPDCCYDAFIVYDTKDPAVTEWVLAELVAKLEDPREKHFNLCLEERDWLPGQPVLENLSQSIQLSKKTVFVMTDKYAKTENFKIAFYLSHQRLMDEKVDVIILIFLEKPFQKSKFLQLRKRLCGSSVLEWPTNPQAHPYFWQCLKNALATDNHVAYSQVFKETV
# Summary of the method: (§1)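 Stimulation followed a 30 min room-temperature compound exposure (final 0.05 nM-50 μM): TLR7 cells with 7.5 μM gardiquimod, TLR8 with 15.9 μM R848, TLR9 with 5 nM ODN2006. After 22 h at 37 °C, secreted alkaline phosphatase was detected colorimetrically and inhibition calculated against DMSO and known-inhibitor controls.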
# human TLR8 = molecular target: T2, human TLR8 (Homo sapiens, UniProt Q9NR97); assay: TLR8 inhibition reporter assay (HEK-Blue SEAP); conditions: HEK-Blue cells overexpressing human TLR8, stimulated with R848 15.9 μM, 22 hour incubation
# T2 construct: host or cells: HEK-Blue cells
# T2 sequence (Q9NR97 27-1041): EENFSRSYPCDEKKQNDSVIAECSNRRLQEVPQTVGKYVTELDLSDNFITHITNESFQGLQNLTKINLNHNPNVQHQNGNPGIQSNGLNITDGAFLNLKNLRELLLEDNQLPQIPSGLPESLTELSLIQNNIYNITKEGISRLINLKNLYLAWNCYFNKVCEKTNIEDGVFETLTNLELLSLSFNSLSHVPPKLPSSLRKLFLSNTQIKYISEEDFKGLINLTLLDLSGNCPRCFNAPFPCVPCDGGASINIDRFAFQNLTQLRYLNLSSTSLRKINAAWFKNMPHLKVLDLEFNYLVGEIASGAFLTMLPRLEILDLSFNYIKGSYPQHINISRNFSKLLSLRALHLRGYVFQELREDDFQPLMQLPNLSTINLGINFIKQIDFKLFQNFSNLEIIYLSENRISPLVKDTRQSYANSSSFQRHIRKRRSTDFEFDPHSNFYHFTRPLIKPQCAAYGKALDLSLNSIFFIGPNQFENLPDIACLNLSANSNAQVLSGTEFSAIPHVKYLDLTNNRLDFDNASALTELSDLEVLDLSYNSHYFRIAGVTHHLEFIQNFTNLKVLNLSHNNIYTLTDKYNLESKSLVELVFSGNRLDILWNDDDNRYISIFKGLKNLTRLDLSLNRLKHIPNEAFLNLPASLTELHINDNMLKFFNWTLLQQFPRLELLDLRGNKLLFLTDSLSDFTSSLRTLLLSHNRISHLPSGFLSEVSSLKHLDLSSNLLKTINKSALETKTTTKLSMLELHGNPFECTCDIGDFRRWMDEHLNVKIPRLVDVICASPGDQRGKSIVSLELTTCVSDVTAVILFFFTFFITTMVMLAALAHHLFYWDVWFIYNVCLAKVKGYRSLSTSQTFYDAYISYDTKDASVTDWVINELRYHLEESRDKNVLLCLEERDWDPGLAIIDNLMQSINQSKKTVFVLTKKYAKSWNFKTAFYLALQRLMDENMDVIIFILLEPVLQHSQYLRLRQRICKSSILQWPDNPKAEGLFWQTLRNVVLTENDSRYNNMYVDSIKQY
# Summary of the method: as §1
# human TLR9 = molecular target: T3, human TLR9 (Homo sapiens, UniProt Q9NR96); assay: TLR9 inhibition reporter assay (HEK-Blue SEAP); conditions: HEK-Blue cells overexpressing human TLR9, stimulated with ODN2006 5 nM, 22 hour incubation
# T3 construct: host or cells: HEK-Blue cells
# T3 sequence (Q9NR96 26-1032): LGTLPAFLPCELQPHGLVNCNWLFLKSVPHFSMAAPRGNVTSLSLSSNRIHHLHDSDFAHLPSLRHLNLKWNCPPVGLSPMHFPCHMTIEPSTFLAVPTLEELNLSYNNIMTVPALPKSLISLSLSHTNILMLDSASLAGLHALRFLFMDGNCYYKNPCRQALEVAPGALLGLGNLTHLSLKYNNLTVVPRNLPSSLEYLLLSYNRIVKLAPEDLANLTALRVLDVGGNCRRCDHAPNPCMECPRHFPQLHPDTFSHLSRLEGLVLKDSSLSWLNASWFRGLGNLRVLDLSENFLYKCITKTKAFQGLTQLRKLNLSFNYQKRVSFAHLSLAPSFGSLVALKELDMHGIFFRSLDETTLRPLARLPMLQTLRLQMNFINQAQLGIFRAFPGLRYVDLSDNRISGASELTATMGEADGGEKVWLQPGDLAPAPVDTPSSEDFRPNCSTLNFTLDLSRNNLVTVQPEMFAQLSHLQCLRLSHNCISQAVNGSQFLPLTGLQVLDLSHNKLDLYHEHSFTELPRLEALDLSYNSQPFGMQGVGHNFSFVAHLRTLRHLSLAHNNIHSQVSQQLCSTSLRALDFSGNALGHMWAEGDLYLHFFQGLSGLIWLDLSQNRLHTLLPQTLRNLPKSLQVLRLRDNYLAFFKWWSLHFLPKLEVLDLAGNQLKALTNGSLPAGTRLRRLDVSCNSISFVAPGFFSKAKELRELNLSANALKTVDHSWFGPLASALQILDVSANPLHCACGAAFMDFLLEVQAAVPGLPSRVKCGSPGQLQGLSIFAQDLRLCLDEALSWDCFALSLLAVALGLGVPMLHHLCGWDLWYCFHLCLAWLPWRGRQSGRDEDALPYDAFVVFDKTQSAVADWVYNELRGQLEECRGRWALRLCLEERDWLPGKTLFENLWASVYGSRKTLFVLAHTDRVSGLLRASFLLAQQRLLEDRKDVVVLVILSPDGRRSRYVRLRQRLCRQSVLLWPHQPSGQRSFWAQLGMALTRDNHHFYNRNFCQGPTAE
# Summary of the method: as §1
Structure (SMILES),IC50 (human TLR7) [nM],IC50 (human TLR8) [nM],IC50 (human TLR9) [nM]
"COc1ccc(-c2[nH]c3ccc(OCC(=O)NC4CCC(N)CC4)cc3c2C(C)C)cc1OC (stereo not drawn) [Example 131, N-(4-aminocyclohexyl)-2-((2-(3,4-dimethoxyphenyl)-3-isopropyl-1H-indol-5-yl)oxy) acetamide]",293,18.3,908
"COc1ccc(-c2[nH]c3ccc(OCC(=O)NCC4(O)CCN(C)CC4)cc3c2C(C)C)cc1OC [Example 133, 2-((2-(3,4-dimethoxyphenyl)-3-isopropyl-1H-indol-5-yl)oxy)-N-((4-hydroxy-1-methylpiperidin-4-yl)methyl)acetamide]",557,19.7,861
"COc1ccc(-c2[nH]c3ccc(OCC(=O)NC4CCN(C(C)C)CC4)cc3c2C(C)C)cc1OC [Example 139, 2-((2-(3,4-dimethoxyphenyl)-3-isopropyl-1H-indol-5-yl)oxy)-N-(1-isopropylpiperidin-4-yl)acetamide]",623,83.2,2440
"Cc1cc(-c2[nH]c3ccc(OCC(=O)N4CCCC5(CNC5)C4)cc3c2C(C)C)ccn1 [Example 140, 2-((3-isopropyl-2-(2-methylpyridin-4-yl)-1H-indol-5-yl)oxy)-1-(2,6-diazaspiro[3.5]nonan-6-yl)ethan-1-one]",629,216,886
"Cc1cc(-c2[nH]c3ccc(OCC(=O)N4CC5(CCNCC5)C4)cc3c2C(C)C)ccn1 [Example 141, 2-((3-isopropyl-2-(2-methylpyridin-4-yl)-1H-indol-5-yl)oxy)-1-(2,7-diazaspiro[3.5]nonan-2-yl)ethan-1-one]",427,186,625
"Cc1cc(-c2[nH]c3ccc(OCC(=O)NC4CCC5CNCC54)cc3c2C(C)C)ccn1 (stereo not drawn) [Example 142, 2-((3-isopropyl-2-(2-methylpyridin-4-yl)-1H-indol-5-yl)oxy)-N-(octahydrocyclopenta[c]pyrrol-4-yl)acetamide]",349,78.4,383
"Cc1cc(-c2[nH]c3ccc(OCC(=O)N4CCCCC4C4CCNCC4)cc3c2C(C)C)ccn1 (stereo not drawn) [Example 143, 1-([2,4′-bipiperidin]-1-yl)-2-((3-isopropyl-2-(2-methylpyridin-4-yl)-1H-indol-5-yl)oxy)ethan-1-one]",330,220,354
"Cc1cc(-c2[nH]c3ccc(OCC(=O)N4CCC5(CCNCC5)C4)cc3c2C(C)C)ccn1 [Example 144, 2-((3-isopropyl-2-(2-methylpyridin-4-yl)-1H-indol-5-yl)oxy)-1-(2,8-diazaspiro[4.5]decan-2-yl)ethan-1-one]",917,176,296
"Cc1cc(-c2[nH]c3ccc(OCC(=O)N4CC5CNCC5C4)cc3c2C(C)C)ccn1 (stereo not drawn) [Example 145, 1-(hexahydropyrrolo[3,4-c]pyrrol-2(H)-yl)-2-((3-isopropyl-2-(2-methylpyridin-4-yl)-1H-indol-5-yl)oxy)ethan-1-one]",315,137,260

# Now those with a lower IC50 (human TLR7), led by results:
IC50 (human TLR7) [nM],IC50 (human TLR8) [nM],IC50 (human TLR9) [nM],Structure (SMILES)
281,24.7,1920,"COc1ccc(-c2[nH]c3ccc(OCC(=O)N4CCC(OC5CCNCC5)CC4)cc3c2C(C)C)cc1OC [Example 138, 2-((2-(3,4-dimethoxyphenyl)-3-isopropyl-1H-indol-5-yl)oxy)-1-(4-(piperidin-4-yloxy)piperidin-1-yl)ethan-1-one]"
185,24.1,1820,"COc1ccc(-c2[nH]c3ccc(OCC(=O)N[C@@H]4CCNC4)cc3c2C(C)C)cc1OC [Example 135, (R)-2-((2-(3,4-dimethoxyphenyl)-3-isopropyl-1H-indol-5-yl)oxy)-N-(pyrrolidin-3-yl)acetamide]"
142,9.1,2140,"COc1ccc(-c2[nH]c3ccc(OCC(=O)N[C@@H]4CCCNC4)cc3c2C(C)C)cc1OC [Example 137, (R)-2-((2-(3,4-dimethoxyphenyl)-3-isopropyl-1H-indol-5-yl)oxy)-N-(piperidin-3-yl)acetamide]"
126,37,777,"COc1ccc(-c2[nH]c3ccc(OCC(=O)NC4CCNCC4)cc3c2C(C)C)cc1OC [Example 136, 2-((2-(3,4-dimethoxyphenyl)-3-isopropyl-1H-indol-5-yl)oxy)-N-(piperidin-4-yl)acetamide]"
98,11.6,359,"COc1ccc(-c2[nH]c3ccc(OCC(=O)N[C@H]4CCNC4)cc3c2C(C)C)cc1OC [Example 134, (S)-2-((2-(3,4-dimethoxyphenyl)-3-isopropyl-1H-indol-5-yl)oxy)-N-(pyrrolidin-3-yl)acetamide]"
58.6,15.8,2010,"COc1ccc(-c2[nH]c3ccc(OCC(=O)N4C[C@H]5C[C@@H]4CN5)cc3c2C(C)C)cc1OC [Example 132, 1-((1R,4R)-2,5-diazabicyclo[2.2.1]heptan-2-yl)-2-((2-(3,4-dimethoxyphenyl)-3-isopropyl-1H-indol-5-yl)oxy)ethan-1-one]"
